Measurements taken from patent publication US20100055047A1, “Methods for treating bronchial premalignancy and lung cancer” (priority 2008, published 2010).
≈ marks a conversion by molar mass, not a printed value.

Assays:
[1] = test system: orthotopic H358 NSCLC model in nude mice; assay: Antitumor efficacy, orthotopic H358 NSCLC xenograft; format: in vivo
Protocol: (§1) Antitumor efficacy. In order to evaluate the antitumor efficacy of the airway administered demethylating agent and to compare the result with systemic treatment, orthotopic human NSCLC xenograft models in nude mice were developed by inoculating the tumor cells in the respiratory airway (35,36). In the first experiment, the mice bearing lung tumors were randomly divided into 3 groups with 5 mice in each. Ten days after the H460 tumor inoculation, one group of mice were treated with intratracheal injection of 2.5 mg/kg of 5-azacytidine every other day for 3 injections, another group of mice were treated with IV injections of 6.25 mg/kg every day for 6 injections via tail vein, and the last group of mice remained untreated. […] The median survival is 50, 80 and >109 days for no treatment, IV 5Aza, and IT 5Aza group, respectively (FIG. 5-2). The similar results were obtained from another experiment using an orthotopic H358 NSCLC model. In the second experiment, the treatment schedules and doses were the same as the first experiment. The median survival is 60, 73, and 98 days for no treatment, IV 5Aza, and IT 5Aza group, respectively (FIG. 5-3). In both experiments, the differences between IT 5Aza and IV 5Aza are statistically significant (p<0.01).

lung cancer patients = details: intravenous or subcutaneous, not aerosol; one of the largest studies; transient; cited from earlier work
[2] = test system: DAPK and E-cadherin in human NSCLC cell lines A549 and H460; assay: Demethylation function: re-expression of DAPK and E-cadherin by Western blotting; format: cell-based; details: 24 hours exposure
Excerpt: DAPK and E-cadherin are important tumor suppressor proteins.

[3] = test system: nude mice inoculated with H460 cells intratracheally; assay: Dose finding: lethal toxicity and MTD; format: in vivo; details: maximum dose causing 0% death
Protocol: (§2) Dose finding. In order to use optimal therapeutic dose, the lethal toxicity and MTD for intratracheal injection (mimicking aerosol, IT) and intravenous injection (mimicking current most frequently used intravenous infusion and injection, IV) routes were determined in mice before the therapeutic experiment. Briefly, the nude mice (female, 6 weeks age) were inoculated with 4×10^6H460 cells intratracheally. One week later, they were randomly divided into several groups with 5 mice in each. Different groups of mice received different doses of IT 5Aza (range from 2.5 to 50 mg/kg qod×3) or IV 5Aza (range from 6.25 to 50 mg/k daily×6). The percentage of moribund mice in each group versus dose was used to simulate the dose response curves and determined the MTD. The maximum dose caused 0% death was defined as MTD. Under these experimental conditions, the MTD for both IT and IV 5Aza was 37.5 mg/kg or 112.5 mg/m^2 (total dose, FIG. 5-1). In considering the cytotoxicity results and the aerosol efficiency, 20% of IT MTD and 100% of IV MTD were used for the therapeutic studies.

[4] = Dose finding: lethal toxicity and MTD; format: in vivo, mice; details: female, nude, mouse, in vivo, maximum dose causing 0% death, read-out: MTD (total dose)
Protocol: as §2

[5] = test system: Human NSCLC cell lines H358, H460, and A549; assay: Cytotoxicity by MTT assay; format: cell-based; details: 72 h, 3 days exposure, range over the cell lines, read-out: IC50 (concentration inhibiting 50 percent cell growth)
Protocol: Cytotoxicity of 5-azacytidine. Human NSCLC cell lines H358, H460, and A549 were exposed to different concentrations of 5-azacytidine in a 96-well plate for 3 days. The cytotoxicity was measured by MTT assay.

[6] = Aerodynamic size of aerosol droplets (7-Stage Cascade Impactor); format: physicochemical; details: PARI compressor, LC star nebulizer, airflow 5 L/min
Protocol: Aerosol equipment. A PARI personal compressor and a LC star nebulizer were used in this study. The pressure should be 20-28 psi, and the aerosol generated rate should be 0.3±0.03 ml/min. Other clinically used aerosol equipment with similar functions can be used as well.
The aerodynamic diameters of aerosol droplets of 5-azacytidine were determined with extrusion-precipitation method using a 7-Stage Cascade Impactor (In-Tox Products, Albuquerque, N. Mex.) linked to PARI's personal compressor and LC star nebulizer system. 5-azacytidine solution (4 ml) was aerosolized under the airflow rate of 5 L/min. The condensed aerosol samples were collected at 3 different periods, from 1 to 1.5 min, from 3 to 3.5 min, and from 5 to 5.5 min. Aerodynamic size and fraction of aerosol with a particular size range were measured and calculated as per manufacturer's protocol. The data was mean±SD of the aerodynamic size based on weight (bars) and cumulative weight (line) from 3 independent experiments.

[7] = test system: orthotopic human NSCLC xenograft H460 in nude mice; assay: Antitumor efficacy, orthotopic H460 NSCLC xenograft; format: in vivo
Protocol: as §1

ICR mice = assay: in vivo
Protocol: (§3) Acute toxicity. The dose limiting toxicity of intravenous 5-azacytidine or decitabine is severe myelosuppression. In order to test whether aerosol or intratracheal injection can reduce the myelotoxicity or alter the toxicity profile, a dose of 90 mg/kg, the maximum tolerated dose (MTD) for intravenous injection (IV) of 5-azacytidine, was used to treat ICR mice by intravenous injection to mimic current therapy. The same dose of intratracheal injection (IT) of 5-azacytidine was used to mimic aerosol administration (35). Complete blood count (CBC), creatinine, liver function tests, and pathological evaluation of H/E staining of lungs, kidney and liver were performed to assess for toxicity differences.

in vivo = details: ICR, mouse, in vivo, iv
Protocol: as §3

[8] = IT 2.5 mg/kg every other day for 3 injections
[9] = IV 6.25 mg/kg every day for 6 injections

Nc1ncn([C@@H]2O[C@H](CO)[C@@H](O)[C@H]2O)c(=O)n1 [5-azacytidine]
median survival [1, 8]: 98 days
median survival [1, 9]: 73 days
partial remission in lung cancer patients (lung cancer patients): one of 24 lung cancer patients had a partial remission
expressions of DAPK and E-cadherin [2]: significantly enhanced
MTD (total dose) ([3]; IT, qod×3): 112.5 mg/m^2
MTD (total dose) ([3]; IV, daily×6): 112.5 mg/m^2
MTD ([4]; other: intratracheal injection, IT, qod×3): 37.5 mg/kg
MTD at 6 days ([4]; IV, daily×6): 37.5 mg/kg
IC50 [5]: 4 to 14 µg/mL (≈ 16.4 to 57.3 µM)
fraction of aerosol droplets measured between 0.2~3 μm in diameter [6]: about 97 % (weight)
median survival [7, 8]: > 109 days
median survival [7, 9]: 80 days
highest white blood cell (WBC) reduction (ICR mice; ICR, mouse, in vivo, iv, 90 mg/kg, 4 day): 69±8.3%
lung toxicity (ICR mice; IT, 90 mg/kg): reversible lung toxicity that peaked on day 7, reduced on day 14
highest white blood cell (WBC) reduction (ICR mice; IT, 90 mg/kg, day 7): 11±1.0%
Toxicity grade of lungs (ICR mice; IT, Day 7): 1-2
hepatic or renal toxicities (ICR mice; mouse, in vivo, 90 mg/kg): no hepatic or renal toxicities
hepatic or renal toxicities (ICR mice; mouse, in vivo, iv, 90 mg/kg): no hepatic or renal toxicities
MTD (in vivo): 90 mg/kg
